Source: PMC3443605 (Journal of medicinal chemistry, 2012)
Entries after “also recorded” stand apart in the source; their conditions may differ.

How the values were obtained:
[1] = cited from earlier work
wild-type mice [2] = details: cited from earlier work
wild-type mice [3] = details: cited from earlier work; remark: listed apart in the source
[4] = system: β-arrestin-2 knockout mice; details: cited from earlier work
D2L receptors [5] = biological target: T1, D2L receptors (Homo sapiens, UniProt P14416); test: D2R radioligand binding assay
Target sequence in this assay (P14416 whole entry): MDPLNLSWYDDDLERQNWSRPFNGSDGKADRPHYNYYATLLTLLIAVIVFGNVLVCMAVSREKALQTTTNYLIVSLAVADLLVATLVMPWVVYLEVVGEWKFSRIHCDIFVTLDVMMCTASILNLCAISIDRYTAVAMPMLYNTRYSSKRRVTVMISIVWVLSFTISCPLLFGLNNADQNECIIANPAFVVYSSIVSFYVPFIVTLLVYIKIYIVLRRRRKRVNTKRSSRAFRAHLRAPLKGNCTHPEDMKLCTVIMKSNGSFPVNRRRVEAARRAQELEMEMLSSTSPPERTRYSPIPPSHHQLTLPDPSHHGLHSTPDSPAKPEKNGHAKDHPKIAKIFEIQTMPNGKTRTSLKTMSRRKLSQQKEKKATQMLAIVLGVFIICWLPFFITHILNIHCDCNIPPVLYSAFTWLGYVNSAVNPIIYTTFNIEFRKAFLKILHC

D2L receptors [6] = biological target: T1, D2L receptors; test: cell-based; format: cell-based
Target sequence in this assay (P14416 whole entry, added parts left off): as the sequence (P14416 whole entry) above
Target sequence in this assay (P32121 whole entry partner): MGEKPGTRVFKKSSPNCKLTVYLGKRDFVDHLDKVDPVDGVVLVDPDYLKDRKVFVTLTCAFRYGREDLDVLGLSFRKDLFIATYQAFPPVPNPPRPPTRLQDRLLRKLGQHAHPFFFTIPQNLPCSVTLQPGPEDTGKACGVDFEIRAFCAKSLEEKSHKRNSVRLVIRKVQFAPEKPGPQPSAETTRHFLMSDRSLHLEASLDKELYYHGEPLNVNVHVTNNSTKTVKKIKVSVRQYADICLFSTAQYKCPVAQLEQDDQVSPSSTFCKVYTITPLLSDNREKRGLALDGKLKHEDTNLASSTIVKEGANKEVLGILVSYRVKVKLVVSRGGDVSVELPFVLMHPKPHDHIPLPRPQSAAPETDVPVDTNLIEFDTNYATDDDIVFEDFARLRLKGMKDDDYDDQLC

D1 receptor = D1 receptor (Homo sapiens, UniProt P21728); test: PDSP radioligand binding assay, D1; details: Table S1
D1 receptor, sequence (P21728 whole entry): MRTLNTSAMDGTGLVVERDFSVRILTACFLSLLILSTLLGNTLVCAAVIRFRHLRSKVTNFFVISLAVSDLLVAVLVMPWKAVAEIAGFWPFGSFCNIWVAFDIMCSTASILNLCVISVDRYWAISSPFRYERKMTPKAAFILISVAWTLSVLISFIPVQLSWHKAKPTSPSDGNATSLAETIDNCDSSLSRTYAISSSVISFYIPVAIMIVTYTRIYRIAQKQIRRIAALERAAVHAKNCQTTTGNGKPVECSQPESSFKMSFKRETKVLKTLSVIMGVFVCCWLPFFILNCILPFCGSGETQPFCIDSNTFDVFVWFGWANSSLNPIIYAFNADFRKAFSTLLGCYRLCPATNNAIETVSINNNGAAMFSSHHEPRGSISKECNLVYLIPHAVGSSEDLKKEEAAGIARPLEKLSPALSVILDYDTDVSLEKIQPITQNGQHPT

[7] = system: β-arrestin-2 knockout mice; test: PCP-induced hyperlocomotion in β-arrestin-2 knockout mice; format: in vivo, mouse; details: 2 mg/kg i.p., 30 min before 6 mg/kg PCP i.p.
D5 receptor = D5 receptor (Homo sapiens, UniProt P21918); test: PDSP radioligand binding assay, D5; details: Table S1
D5 receptor, sequence (P21918 whole entry): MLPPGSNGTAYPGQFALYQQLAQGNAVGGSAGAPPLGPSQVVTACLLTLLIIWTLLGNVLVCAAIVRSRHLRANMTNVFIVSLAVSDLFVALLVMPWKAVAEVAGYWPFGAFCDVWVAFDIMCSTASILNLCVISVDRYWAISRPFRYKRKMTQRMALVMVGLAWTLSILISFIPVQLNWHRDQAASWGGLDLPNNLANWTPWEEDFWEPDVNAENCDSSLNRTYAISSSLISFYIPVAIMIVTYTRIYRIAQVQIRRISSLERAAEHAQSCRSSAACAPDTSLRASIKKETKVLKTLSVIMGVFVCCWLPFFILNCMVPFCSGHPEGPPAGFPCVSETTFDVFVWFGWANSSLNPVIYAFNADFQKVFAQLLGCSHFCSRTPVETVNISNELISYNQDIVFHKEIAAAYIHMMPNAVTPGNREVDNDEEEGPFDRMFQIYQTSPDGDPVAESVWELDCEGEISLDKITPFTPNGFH

wild-type mice [8] = test: PCP-induced hyperlocomotion in wild-type mice; format: in vivo, mouse; details: 2 mg/kg i.p., 30 min before 6 mg/kg PCP i.p.
D4 receptor = biological target: T2, D4 receptor (Homo sapiens, UniProt P21917); test: PDSP radioligand binding assay, D4; details: Table S1
T2 sequence (P21917 1-419): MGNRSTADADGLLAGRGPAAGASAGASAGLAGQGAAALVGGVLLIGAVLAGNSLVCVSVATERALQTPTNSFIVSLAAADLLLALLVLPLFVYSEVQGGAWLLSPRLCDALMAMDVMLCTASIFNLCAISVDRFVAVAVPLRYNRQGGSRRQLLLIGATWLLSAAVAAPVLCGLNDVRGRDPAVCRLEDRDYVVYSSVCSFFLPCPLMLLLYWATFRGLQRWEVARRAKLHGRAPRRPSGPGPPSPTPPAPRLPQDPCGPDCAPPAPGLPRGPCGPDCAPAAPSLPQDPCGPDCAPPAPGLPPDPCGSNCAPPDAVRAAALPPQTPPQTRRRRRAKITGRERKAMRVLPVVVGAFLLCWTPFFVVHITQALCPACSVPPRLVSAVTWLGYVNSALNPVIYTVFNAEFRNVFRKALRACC

D3 receptor = D3 receptor (Homo sapiens, UniProt P35462); test: PDSP radioligand binding assay, D3; details: Table S1
D3 receptor, sequence (P35462 whole entry): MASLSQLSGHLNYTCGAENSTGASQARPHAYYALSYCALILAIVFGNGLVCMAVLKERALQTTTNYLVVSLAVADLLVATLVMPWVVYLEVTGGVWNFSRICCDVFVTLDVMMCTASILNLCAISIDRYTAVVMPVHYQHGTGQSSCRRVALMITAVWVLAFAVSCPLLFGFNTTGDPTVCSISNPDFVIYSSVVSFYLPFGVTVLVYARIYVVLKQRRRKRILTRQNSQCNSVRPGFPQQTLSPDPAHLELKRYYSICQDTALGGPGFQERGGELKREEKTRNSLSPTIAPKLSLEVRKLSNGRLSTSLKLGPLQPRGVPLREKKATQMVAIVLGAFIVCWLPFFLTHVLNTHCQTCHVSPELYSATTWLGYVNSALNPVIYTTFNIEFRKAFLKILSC

In the case of `O=C1CCc2ccc(OCCCCN3CCN(c4cccc(Cl)c4Cl)CC3)cc2N1` [Compound 1, aripiprazole], the oral bioavailability [1] is given as “high”.
In the case of `O=C1CCc2ccc(OCCCCN3CCCN(c4cccc(Cl)c4Cl)CC3)nc2N1` [Compound 44], the “catalepsy in wild-type mice” value (wild-type mice [2]) is listed as “did not induce catalepsy”, the “antipsychotic drug-like activities in wild-type mice” value (wild-type mice [3]) is listed as “robust” and the “antipsychotic drug-like activities in β-arrestin-2 knockout mice” value [4] is listed as “significantly attenuated or completely abolished”.
In the case of `O=C1CCc2ccc(OC[C@@H]3C[C@H]3CN3CCN(c4cccc(Cl)c4Cl)CC3)cc2N1` (relative stereo) [Compound 24, Trans-7-((2-((4-(2,3-dichlorophenyl)piperazin-1-yl)methyl)cyclopropyl)methoxy)-3,4-dihydroquinolin-2(1H)-one], the Ki (D2L receptors [5]) is reported as 235 nM and the EC50 (D2L receptors [6]) is reported as 1260 nM.
With `Clc1cccc(C2CCN(CCCCOc3ccc4scnc4c3)CC2)c1Cl` [Compound 35, 5-(4-(4-(2,3-Dichlorophenyl)piperidin-1-yl)butoxy)benzo[d]thiazole] the “binding affinity to D1 receptor” value (D1 receptor) was “low affinities”, the “binding affinity to D2 receptor” value (D2L receptors [5]; Table S1) was “high affinities” and the “antipsychotic-like activity (PCP-induced hyperlocomotion), β-arrestin-2 knockout mice” value [7] was “neither compound affected”. For the same molecule, the “binding affinity to D5 receptor” value (D5 receptor) was “low affinities”, the “effect on PCP-induced hyperlocomotion, wild-type mice” value (wild-type mice [8]) was “significantly reduced” and the “binding affinity to D4 receptor” value (D4 receptor) was “high affinities”. The “binding affinity to D3 receptor” value (D3 receptor) was “high affinities”.
With `CC(C)Oc1ccccc1N1CCN(CCCCOc2ccc3c(c2)NC(=O)CC3)CC1` [Compound 4, 7-(4-(4-(2-Isopropoxyphenyl)piperazin-1-yl)butoxy)-3,4-dihydroquinolin-2(1H)-one] the “potency at activating β-arrestin versus Gi signaling” value (D2L receptors [6]) was “about 10 fold”.
In the case of `O=C1CCc2ccc(OCCCCN3CCCN(c4cccc(Cl)c4Cl)CC3)cc2N1` [Compound 19], the “binding affinity to D1 receptor” value (D1 receptor) is reported as “low affinities”, the “antipsychotic-like activity (PCP-induced hyperlocomotion), β-arrestin-2 knockout mice” value [7] is reported as “neither compound affected; also recorded: completely abolished” and the “binding affinity to D5 receptor” value (D5 receptor) is reported as “low affinities”. The “effect on PCP-induced hyperlocomotion, wild-type mice” value (wild-type mice [8]) was “markedly inhibited”.
In the case of `Clc1cccc(C2CCN(CCCOc3ccc4scnc4c3)CC2)c1Cl` [Compound 36], the “catalepsy in wild-type mice” value (wild-type mice [2]) is given as “did not induce catalepsy”, the “antipsychotic drug-like activities in wild-type mice” value (wild-type mice [3]) is given as “robust” and the “antipsychotic drug-like activities in β-arrestin-2 knockout mice” value [4] is given as “significantly attenuated or completely abolished”.
